Assay results as given in US8771755B2, “Preparation and compositions of highly bioavailable zerovalent sulfur and uses thereof” (Nuevas Alternativas Naturales, S.A.P.I. de C.V., priority 2011, dated 2014).
Where two headings read alike, the source gives them in different places. One block for each compound: values may come before it.

Tests used:
[1] = comparison substance; cited from earlier work
[2] = Percentage bioactive sulfur contained in hydrogen sulfide prodrugs; format: physicochemical
[3] = test system: superoxide formation and expression of p47phox (a subunit of NOX); conditions: Shukla et al., BJU Int. 2009; cited from earlier work
[4] = test system: pregnant rat uterine contractility; conditions: in vitro, Sidhu et al. 2001; cited from earlier work
angiogenesis = conditions: in the drinking water; via increasing VEGF expression; Givvimani et al. 2011; cited from earlier work
[5] = test system: patients with idiopathic oligoasthenozoospermia; assay: Prospective, randomized, double blind study in idiopathic oligoasthenozoospermia, semen analysis; format: in vivo, human; conditions: first sample (baseline, before treatment)
Experimental: A prospective, randomized, double blind study evaluated and approved by the Ethics Committee of the Universidad Autónoma de Nuevo León University Hospital (Monterrey, Mexico) with registration number BR09-001 was conducted. The study included patients who attended the Reproductive Biology Clinic of the University Hospital from July 2009 to September 2010 who desired to be pregnant and met the inclusion criteria. Patients between 20 and 45 years of age with a diagnosis of idiopathic oligoasthenozoospermia wishing to participate in the study after signing informed consent were included. The diagnosis of oligoasthenozoospermia was reached by performing two semen analyses on different dates with an interval of three weeks in between. To make the diagnosis, the results of the semen analyses needed to report less than 25% type A sperm motility or less than 50% type A+B sperm motility as detailed in the World Health Organization Laboratory Manual for the Examination of Human Semen and Semen-Cervical Mucus Interaction, 4th ed. New York: Cambridge University Press, 1999. Type A Motility comprised rapid progression; type B motility comprised medium progression; type C mobility comprised slow or clumsy progression; and type D mobility comprised immotile. Oligozoospermia was defined as a concentration of less than 20 million sperm per milliliter, according to the criteria of the World Health Organization. Oligoasthenozoospermia was defined as the presence of oligozoospermia and asthenozoospermia in the same patient. In each semen analysis, morphology was manually assessed using Kruger strict criteria.
Infertile patients with normal findings on semen analysis, patients who were chronic smokers or those who had been taking antioxidants in the last 6 months prior to study entry were excluded. Patients with chronic degenerative diseases such as diabetes or high blood pressure or with hormonal abnormalities were also excluded.
A complete medical history and physical examination was obtained for all patients. All study participants underwent a second semen analysis to confirm the diagnosis after a sexual abstinence of 3 to 5 days. This semen analysis was considered baseline (sample 1). On a second visit this new semen analysis was reviewed to confirm oligoasthenozoospermia and one of the 3 substances to be taken was randomly prescribed for 75 days. The substances given were 1.5 g of hydrogen sulfide prodrug as an antioxidant, 50 mg of resveratrol as an antioxidant, and 1.5 g of microcrystalline cellulose as a placebo.
Randomization of the substance given to each patient was performed by placing in a drawer at random all the containers having exactly the same color, size, and shape with the three separate substances (hydrogen sulfide prodrug, resveratrol, and placebo) without any kind of reference as to the content. […] The attending physician and the patient were unaware of the contents of the container. […] Each patient was asked to take a container at random and the container number was recorded in the patient's medical record. At the end of the study, before statistical analysis, we obtained the relationship between the numbers on the labels and the contents, grouping patients according to the substance. Each patient was given a treatment adherence form (a patient log) in order to count the days of medication and record adverse events, if these occurred, including the type and frequency.
The patients were scheduled one month after starting treatment (third visit) in order to document adverse effects and adherence to treatment.
In the next scheduled consultation (fourth visit), carried out 75 days after starting treatment; adherence was verified and adverse effects were reported. For this visit, the patients presented with 3 to 5 days of sexual abstinence for post-treatment semen analysis (sample 2). […]

[6] = sulfur capable of being converted into hydrogen sulfide in vivo, prior art prodrugs

Compound: [S] [Pure alpha- or beta-elemental sulfur, elemental sulfur]
solubility in carbon disulfide [1]: completely soluble

Compound: C1COCCN1.COc1ccc(P(=S)(S)N2CCOCC2)cc1 (stereo not shown) [GYY 4137]
% Bioactive sulfur (w/w) [2]: 8.5 % (w/w)

Compound: O=C(Cc1ccccc1Nc1c(Cl)cccc1Cl)Oc1ccc(-c2cc(=S)ss2)cc1 [ACS 15]
% Bioactive sulfur (w/w) [2]: 6.3 % (w/w)

% Bioactive sulfur (w/w) [2, 6]: 3.5 % (w/w)
Compound: CCCc1nn(C)c2c(=O)[nH]c(-c3cc(S(=O)(=O)N4CCN(CC(=O)Oc5ccc(-c6cc(=S)ss6)cc5)CC4)ccc3OCC)nc12 [ACS 6]
inhibition of expression of p47phox [3]: more than sildenafil citrate
inhibition of superoxide formation [3]: more than sildenafil citrate

Compound: COc1ccc2c(c1)c(CC(=O)Oc1ccc(-c3cc(=S)ss3)cc1)c(C)n2C(=O)c1ccc(Cl)cc1 [ATB 343]
% Bioactive sulfur (w/w) [2]: 5.6 % (w/w)

% Bioactive sulfur (w/w) [2, 6]: 18 % (w/w)
Compound: C[S+]([O-])CCCCN=C=S (stereo not shown) [Sulforaphane]

Compound: [Na+].[SH-] [NaHS (anhydrous), sodium hydrogen sulfide]
uterine spontaneous contractility [4]: significant dose-dependent decreases
angiogenesis (angiogenesis): augmented angiogenesis

Compound: O=C(CCC/C=C\C[C@@H]1[C@@H](CC[C@@H](O)CCc2ccccc2)[C@H](O)C[C@@H]1O)Oc1ccc(-c2cc(=S)ss2)cc1 [ACS 67]
% Bioactive sulfur (w/w) [2]: 5.3 % (w/w)

% Bioactive sulfur (w/w) [2, 6]: 8.8 % (w/w)
Compound: COc1ccc2cc(C(C)C(=O)Oc3ccc(C(N)=S)cc3)ccc2c1 (stereo not shown) [ATB 346]

Compound: Oc1ccc(C=Cc2cc(O)cc(O)c2)cc1 [Resveratrol, resveratrol]
MFR (Mobile Forms Recovery, post sperm capacitation) [5]: 0.40 × 10^6
mean sperm concentration [5]: 10.9 million per milliliter
mobile forms recovered (MFR) post-sperm capacitation [5]: 0.40 million
Motility A + B (%) ([5]; group mean): 14.43%
Normal morphology (%) ([5]; group mean): 32.06%
Sperm concentration ([5]; group mean): 10.9 × 10^6

Compound: [Na+].[Na+].[S-2] [Na2S (anhydrous), Na2S]
% Bioactive sulfur (w/w) [2]: 41 % (w/w)
